# Measurements published in patent US8192962B2, “Processes for detecting toxic substances” (Daikin Industries, Ltd., priority 2001, dated 2012).
# Test system: Metabolism protein genes
# Assay: DNA chip mRNA expression in yeast, metabolism protein genes (Table 7)
# Type: cell-based, Saccharomyces cerevisiae S288C
# Procedure: Yeast (Saccharomyces cerevisiae S288C (α SUC2mal mel gap2 CUP1)) were incubated at 25° C. on YPD medium (yeast extract 1%, polypepton 2%, glucose 2%). One of toxic chemical substances was added to the cells at logarithmic growth phase, and the cells were further incubated for two hours. Cells were cultured without any chemical substance in the same condition, and were used as control. Concentrations of the chemical substances were defined to inhibit the growth of the yeast but not lead to death.
# After completion of the incubation, the culture was centrifuged to collect the cells. To the cells, sodium acetate buffer (50 mM sodium acetate, 10 mM EDTA, 1% SDS) was added, and the mixture was shaken at 65° C. for five minutes, followed by returning to room temperature, and obtaining the supernatant, of which the procedures were repeated two times. To the supernatant, ½ amount of a solution of phenol/chloroform was added, and the mixture was centrifuged to give a supernatant, which was added with an equal amount of chloroform, and the mixture was centrifuged to give a supernatant. To the supernatant, an equal amount of isopropanol containing 0.3 M sodium acetate was added, and the mixture was allowed to stand at room temperature for 30 minutes, after which the mixture was centrifuged to give a sediment of the whole RNAs. Seventy % ethanol was added to the sediment, and the mixture was again centrifuged to give a sediment, which was then dried and dissolved in water. mRNA was isolated from the whole RNAs as followings. In view of the fact that a poly A chain is attached to the 3′ terminus of mRNA, a polynucleotide having a poly T structure which was immobilized on the surface of latex beads was used to trap the mRNA, and then the mRNA was washed and eluted with spine column (Oligotex-dT30<Super>mRNA Purification Kit, Takara). Reverse transcription of the mRNA was conducted with a reverse transcriptase (Super Script II Reverse Transcriptase; catalogue No. 18064-014, GibcoBRL) using fluorescence-labeled nucleotides to give cDNAs that were introduced with Cy3-dUTP or Cy5-dUTP during the reverse transcription.
# The labeled cDNAs were dissolved in TE buffer (10mM Tris-HCl/1 mM EDTA, pH8.0), and the solution was dropped on the DNA chip containing the whole genes of yeast (DNA Chip Research Inc. Japan) so that the cDNAs were hybridized on the DNA chip at 65° C. for over 12 hours. The fluoresces intensity of the DNA chip was read with a scanner, and the ratio relative to the fluorescence intensity resulting from the absence of chemical substance was estimated as the following, which is shown in Tables 1 to 9: […]
compound,measurement,setting,value
"COc1cc(CNC(=O)CCCCC=CC(C)C)ccc1O [(12), 8-methyl-N-vanillyl-6-nonenamide]",The level of expressed mRNA in the presence of chemical substance/The level of expressed mRNA in the absence of chemical substance,yeast gene YFL056C,1.0
same,The level of expressed mRNA in the presence of chemical substance/The level of expressed mRNA in the absence of chemical substance,yeast gene YFL057C,1.0
same,The level of expressed mRNA in the presence of chemical substance/The level of expressed mRNA in the absence of chemical substance,yeast gene YFR047C,1.7
same,level of expressed mRNA in the presence/in the absence of chemical substance,yeast gene YGL012W,0.6
same,The level of expressed mRNA in the presence of chemical substance/The level of expressed mRNA in the absence of chemical substance,yeast gene YGL022W,0.7
same,level of expressed mRNA in the presence/in the absence of chemical substance,yeast gene YGL115W,0.9
same,The level of expressed mRNA in the presence of chemical substance/The level of expressed mRNA in the absence of chemical substance,yeast gene YGL126W,0.6
same,level of expressed mRNA in the presence/in the absence of chemical substance,yeast gene YGL205W,1.1
same,The level of expressed mRNA in the presence of chemical substance/The level of expressed mRNA in the absence of chemical substance,yeast gene YGL209W,1.3
same,The level of expressed mRNA in the presence of chemical substance/The level of expressed mRNA in the absence of chemical substance,yeast gene YGL248W,0.8
same,The level of expressed mRNA in the presence of chemical substance/The level of expressed mRNA in the absence of chemical substance,yeast gene YGR037C,1.5
same,The level of expressed mRNA in the presence of chemical substance/The level of expressed mRNA in the absence of chemical substance,yeast gene YGR055W,0.9
same,level of expressed mRNA in the presence/in the absence of chemical substance,yeast gene YGR096W,0.8
same,level of expressed mRNA in the presence/in the absence of chemical substance,yeast gene YGR191W,0.7
same,The level of expressed mRNA in the presence of chemical substance/The level of expressed mRNA in the absence of chemical substance,yeast gene YGR194C,0.8
same,level of expressed mRNA in the presence/in the absence of chemical substance,yeast gene YGR204W,1.0
same,The level of expressed mRNA in the presence of chemical substance/The level of expressed mRNA in the absence of chemical substance,yeast gene YGR244C,1.9
same,The level of expressed mRNA in the presence of chemical substance/The level of expressed mRNA in the absence of chemical substance,yeast gene YGR256W,1.5
same,The level of expressed mRNA in the presence of chemical substance/The level of expressed mRNA in the absence of chemical substance,yeast gene YGR282C,1.3
same,level of expressed mRNA in the presence/in the absence of chemical substance,yeast gene YGR288W,0.9
same,level of expressed mRNA in the presence/in the absence of chemical substance,yeast gene YHR025W,0.9
same,The level of expressed mRNA in the presence of chemical substance/The level of expressed mRNA in the absence of chemical substance,yeast gene YHR111W,0.9
same,level of expressed mRNA in the presence/in the absence of chemical substance,yeast gene YHR123W,0.7
same,The level of expressed mRNA in the presence of chemical substance/The level of expressed mRNA in the absence of chemical substance,yeast gene YHR137W,0.6
same,The level of expressed mRNA in the presence of chemical substance/The level of expressed mRNA in the absence of chemical substance,yeast gene YHR174W,1.5
same,The level of expressed mRNA in the presence of chemical substance/The level of expressed mRNA in the absence of chemical substance,yeast gene YHR176W,1.2
same,level of expressed mRNA in the presence/in the absence of chemical substance,yeast gene YHR210C,0.5
same,level of expressed mRNA in the presence/in the absence of chemical substance,yeast gene YIL006W,0.9
same,The level of expressed mRNA in the presence of chemical substance/The level of expressed mRNA in the absence of chemical substance,yeast gene YIL045W,1.5
same,The level of expressed mRNA in the presence of chemical substance/The level of expressed mRNA in the absence of chemical substance,yeast gene YIL107C,1.1
same,The level of expressed mRNA in the presence of chemical substance/The level of expressed mRNA in the absence of chemical substance,yeast gene YIL154C,1.1
same,The level of expressed mRNA in the presence of chemical substance/The level of expressed mRNA in the absence of chemical substance,yeast gene YIL155C,1.4
same,The level of expressed mRNA in the presence of chemical substance/The level of expressed mRNA in the absence of chemical substance,yeast gene YIL167W,0.7
same,The level of expressed mRNA in the presence of chemical substance/The level of expressed mRNA in the absence of chemical substance,yeast gene YIR034C,1.4
same,The level of expressed mRNA in the presence of chemical substance/The level of expressed mRNA in the absence of chemical substance,yeast gene YIR036C,1.2
same,The level of expressed mRNA in the presence of chemical substance/The level of expressed mRNA in the absence of chemical substance,yeast gene YJL031C,1.3
same,The level of expressed mRNA in the presence of chemical substance/The level of expressed mRNA in the absence of chemical substance,yeast gene YJL068C,1.7
same,The level of expressed mRNA in the presence of chemical substance/The level of expressed mRNA in the absence of chemical substance,yeast gene YJL088W,0.7
same,The level of expressed mRNA in the presence of chemical substance/The level of expressed mRNA in the absence of chemical substance,yeast gene YJL099W,1.0
same,level of expressed mRNA in the presence/in the absence of chemical substance,yeast gene YJL121C,0.6
same,level of expressed mRNA in the presence/in the absence of chemical substance,yeast gene YJL167W,1.3
same,The level of expressed mRNA in the presence of chemical substance/The level of expressed mRNA in the absence of chemical substance,yeast gene YJL172W,1.1
same,level of expressed mRNA in the presence/in the absence of chemical substance,yeast gene YJL216C,1.0
same,The level of expressed mRNA in the presence of chemical substance/The level of expressed mRNA in the absence of chemical substance,yeast gene YJL219W,1.1
same,level of expressed mRNA in the presence/in the absence of chemical substance,yeast gene YJR077C,1.0
same,The level of expressed mRNA in the presence of chemical substance/The level of expressed mRNA in the absence of chemical substance,yeast gene YJR137C,1.4
